Data as given in US10695348B2, “Sulfonyl pyridyl TRP inhibitors” (Genentech, Inc., priority 2017, dated 2020).

Legend:
[1] = Human liver microsome clearance / stability; type: in vitro ADME; settings: for HLM (human liver microsome stability): human liver microsomes, Table 5; for HLM clearance, in words: as compared to compounds 1 and 2
Description: Human liver microsome clearance (mL/min/kg) may be measured according to the method described by Ackley et al, “Metabolic Stability Assessed by Liver Microsomes and Hepatocytes”, in “Optimization in Drug Discovery” in the “Methods in Pharmacology and Toxicology” series (ISSN 1557-2153), pp. 151-162 (Yan, Ed., Print ISBN 978-1-58829-332-9, Springer (2004), as well as by using commercially available assay kits by Cerep, Cyprotex, Bd Bioscience and others.
Human liver microsome HLM stability may be measured as using the procedure of Ackley et al. as described above.

[2] = target: T1, human TRPA1 (Homo sapiens, UniProt O75762); assay: Human Ca2+ MAX IC50 calcium assay; type: cell-based; settings: for IC50: Table 5, read-out: H Ca2+ MAX (human CA2+ MAX IC50); for affinity on human TRPA1, in words: as compared to compounds 1 and 2
T1 construct: expressed in transfected cells; host or cells: CHO cells
Description: Human Ca2+ MAX IC50 may be measured using one of the commercially available calcium assay kits provided by Molecular Devices, Abcam, Bio-Rad, Biovision, Enzo Lifesciences, Abnova, Sigma-Aldrich, or others.

[3] = target: T1, human TRPA1; assay: FLIPR Tetra calcium influx assay, CHO cells expressing TRPA1, cinnamaldehyde agonist (hTRPA1 CHO Ca2+ AUC EVO); type: cell-based; settings: CHO cells expressing human TRPA1; 75 uM cinnamaldehyde; Hill coefficient fixed to 1.5; read-out: hTRPA1 IC50 (hTRPA1 CHO Ca2+ AUC EVO (IC50))
Method: The IC50 ([…]) of compounds on the human and rat TRPA1 channels were determined using a FLIPR Tetra instrument. CHO cells expressing TRPA1 were plated into 384-well plates, incubated overnight at 37° C., and loaded with BD calcium indicator dye for 1 hr at 37° C. followed by 15 minutes at room temperature. The assay buffer was Hank's Balanced Salt Solution (HBSS) containing 20 mM HEPES (pH readjusted to 7.4) along with 0.02% BSA.
Following dye load and plate cool down, compounds were added to the cells using FLIPR Tetra. Plates were then incubated with compounds for 20 minutes at room temperature prior to adding agonist. Following this incubation, about an EC80 concentration of cinnamaldehyde (75 uM for human TRPA1 and 45 uM for rat TRPA1) was added to active the channels and block of cinnamaldehyde induced calcium influx was measured.
The IC50 results were fit with a standard Hill function, keeping the Hill coefficient (n) fixed to 1.5. Fixing the Hill coefficient will generally reduce variability of the IC50 determination. The IC50 results were individually examined to make sure the MIN and MAX points were set correctly prior to validation of the results.

T1 sequence (O75762 whole entry): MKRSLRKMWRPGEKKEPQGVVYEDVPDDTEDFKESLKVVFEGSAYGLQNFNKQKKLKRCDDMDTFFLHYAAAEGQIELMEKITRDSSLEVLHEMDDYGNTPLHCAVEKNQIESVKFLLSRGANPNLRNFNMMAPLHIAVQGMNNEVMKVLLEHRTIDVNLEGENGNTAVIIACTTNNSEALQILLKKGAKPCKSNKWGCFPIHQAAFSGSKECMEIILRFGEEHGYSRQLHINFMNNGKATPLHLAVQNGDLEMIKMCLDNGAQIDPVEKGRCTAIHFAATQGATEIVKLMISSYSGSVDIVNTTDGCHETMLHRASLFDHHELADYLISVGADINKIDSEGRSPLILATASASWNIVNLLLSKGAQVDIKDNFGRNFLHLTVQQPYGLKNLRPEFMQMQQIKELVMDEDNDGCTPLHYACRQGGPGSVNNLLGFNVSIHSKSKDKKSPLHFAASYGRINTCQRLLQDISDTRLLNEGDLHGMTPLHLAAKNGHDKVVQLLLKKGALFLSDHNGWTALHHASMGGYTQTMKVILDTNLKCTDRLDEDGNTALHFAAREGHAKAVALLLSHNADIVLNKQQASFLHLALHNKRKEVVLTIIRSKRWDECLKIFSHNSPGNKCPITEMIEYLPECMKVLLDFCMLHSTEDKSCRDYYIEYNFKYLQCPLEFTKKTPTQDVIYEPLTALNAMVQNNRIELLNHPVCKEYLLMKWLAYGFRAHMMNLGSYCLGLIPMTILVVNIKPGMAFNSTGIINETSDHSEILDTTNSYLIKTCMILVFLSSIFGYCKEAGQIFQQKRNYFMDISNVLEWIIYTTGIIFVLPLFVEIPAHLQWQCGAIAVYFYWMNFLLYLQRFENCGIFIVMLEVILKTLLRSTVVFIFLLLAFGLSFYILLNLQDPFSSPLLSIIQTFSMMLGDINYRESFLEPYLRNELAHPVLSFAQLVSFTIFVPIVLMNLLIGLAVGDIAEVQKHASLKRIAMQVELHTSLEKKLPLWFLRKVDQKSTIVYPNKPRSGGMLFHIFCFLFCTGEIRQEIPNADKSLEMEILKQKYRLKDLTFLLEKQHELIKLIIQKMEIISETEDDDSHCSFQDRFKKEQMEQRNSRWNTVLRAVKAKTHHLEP

Row | SMILES | IC50 [3] | other results
1 | C[C@H]1[C@H](F)C[C@@H](C(=O)NCc2cc(-c3cnc(C(F)(F)F)nc3)ncc2C(F)(F)F)N1S(=O)(=O)c1ccc(F)cn1 (single isomer, unassigned) [Compound 1] |  | HLM (human liver microsome stability) [1]: 4.1 mL/min/kg; IC50 [2]: 8 nM
2 | C[C@H]1[C@H](F)C[C@@H](C(=O)NCc2cc(-c3cnc(C(F)(F)F)nc3)ncc2C(F)(F)F)N1S(=O)(=O)c1ccc(Cl)cn1 [Compound 2] |  | HLM (human liver microsome stability) [1]: 6.1 mL/min/kg; IC50 [2]: 6 nM
3 | C[C@H]1[C@H](F)C[C@@H](C(=O)NCc2cc(-c3cnc(C(F)(F)F)nc3)ncc2C(F)(F)F)N1S(=O)(=O)c1cncc(F)c1 [Compound 3] |  | HLM clearance, in words [1]: relatively high HLM clearance; HLM (human liver microsome stability) [1]: 19 mL/min/kg; IC50 [2]: 21 nM
4 | C[C@H]1[C@H](F)C[C@@H](C(=O)NCc2cc(-c3cnc(C(F)(F)F)nc3)ncc2C(F)(F)F)N1S(=O)(=O)c1ccc(C#N)nc1 [Compound 4] |  | HLM (human liver microsome stability) [1]: 3.7 mL/min/kg; IC50 [2]: 41 nM; affinity on human TRPA1, in words [2]: low affinity
5 | C[C@H]1[C@H](F)C[C@@H](C(=O)NCc2cc(-c3cnc(C(F)(F)F)nc3)ncc2C(F)(F)F)N1S(=O)(=O)c1ccncc1 [Compound 6] |  | HLM clearance, in words [1]: relatively high HLM clearance; HLM (human liver microsome stability) [1]: 19 mL/min/kg; IC50 [2]: 638 nM; affinity on human TRPA1, in words [2]: low affinity
6 | C[C@H]1[C@H](F)C[C@@H](C(=O)NCc2cc(-c3cnc(C(F)(F)F)nc3)ncc2C(F)(F)F)N1S(=O)(=O)c1ccc(F)cn1 [[1], (2S,4R,5S)-4-fluoro-1-[(5-fluoro-2-pyridyl)sulfonyl]-5-methyl-N-[[5-(trifluoromethyl)-2-[2-(trifluoromethyl)pyrimidin-5-yl]-4-pyridyl]methyl]pyrrolidine-2-carboxamide] | 2.69 nM | 
7 | C[C@H]1[C@H](F)C[C@@H](C(=O)NCc2cc(-c3cnc(C(F)(F)F)nc3)ncc2C(F)(F)F)N1S(=O)(=O)c1cccnc1 [[2], (2S,4R,5S)-4-fluoro-5-methyl-1-(3-pyridylsulfonyl)-N-[[5-(trifluoromethyl)-2-[2-(trifluoromethyl)pyrimidin-5-yl]-4-pyridyl]methyl]pyrrolidine-2-carboxamide] | 32 nM | 
8 | C[C@H]1[C@H](F)C[C@@H](C(=O)NCc2cc(-c3cnc(C(F)(F)F)nc3)ncc2C(F)(F)F)N1S(=O)(=O)c1cncc(Cl)c1 [[3], (2S,4R,5S)-1-[(5-chloro-3-pyridyl)sulfonyl]-4-fluoro-5-methyl-N-[[5-(trifluoromethyl)-2-[2-(trifluoromethyl)pyrimidin-5-yl]-4-pyridyl]methyl]pyrrolidine-2-carboxamide] | 3.09 nM | 
9 | C[C@H]1[C@H](F)C[C@@H](C(=O)NCc2cc(-c3cnc(C(F)(F)F)nc3)ncc2C(F)(F)F)N1S(=O)(=O)c1cc2c(Cl)nccc2o1 [[4], (2S,4R,5S)-1-(4-chlorofuro[3,2-c]pyridin-2-yl)sulfonyl-4-fluoro-5-methyl-N-[[5-(trifluoromethyl)-2-[2-(trifluoromethyl)pyrimidin-5-yl]-4-pyridyl]methyl]pyrrolidine-2-carboxamide] | 0.634 nM | 
10 | C[C@H]1[C@H](F)C[C@@H](C(=O)NCc2cc(-c3cnc(C(F)(F)F)nc3)ncc2C(F)(F)F)N1S(=O)(=O)c1cc2cnccc2o1 [[5], (2S,4R,5S)-4-fluoro-1-furo[3,2-c]pyridin-2-ylsulfonyl-5-methyl-N-[[5-(trifluoromethyl)-2-[2-(trifluoromethyl)pyrimidin-5-yl]-4-pyridyl]methyl]pyrrolidine-2-carboxamide] | 1.91 nM | 

Further lines, with some results ahead:

Row | IC50 [3] | SMILES | other results
11 | 2.16 nM | C[C@H]1[C@H](F)C[C@@H](C(=O)NCc2cc(-c3cnc(C(F)(F)F)nc3)ncc2C(F)(F)F)N1S(=O)(=O)c1ccc(Cl)cn1 [[6], (2S,4R,5S)-1-[(5-chloro-2-pyridyl)sulfonyl]-4-fluoro-5-methyl-N-[[5-(trifluoromethyl)-2-[2-(trifluoromethyl)pyrimidin-5-yl]-4-pyridyl]methyl]pyrrolidine-2-carboxamide] | 
12 | 633 nM | C[C@H]1[C@H](F)C[C@@H](C(=O)NCc2cc(-c3cnc(C(F)(F)F)nc3)ncc2C(F)(F)F)N1S(=O)(=O)c1ncccc1F [[7], (2S,4R,5S)-4-fluoro-1-[(3-fluoro-2-pyridyl)sulfonyl]-5-methyl-N-[[5-(trifluoromethyl)-2-[2-(trifluoromethyl)pyrimidin-5-yl]-4-pyridyl]methyl]pyrrolidine-2-carboxamide] | 
13 | 73.5 nM | C[C@H]1[C@H](F)C[C@@H](C(=O)NCc2cc(-c3cnc(C(F)(F)F)nc3)ncc2C(F)(F)F)N1S(=O)(=O)c1ccc(C#N)cn1 [[8], (2S,4R,5S)-1-(5-cyanopyridin-2-ylsulfonyl)-4-fluoro-5-methyl-N-((5-(trifluoromethyl)-2-(2-(trifluoromethyl)pyrimidin-5-yl)pyridin-4-yl)methyl)pyrrolidine-2-carboxamide] | 
14 | 16.7 nM | C[C@H]1[C@H](F)C[C@@H](C(=O)NCc2cc(-c3cnc(C(F)(F)F)nc3)ncc2Cl)N1S(=O)(=O)c1ccc(F)cn1 [[9], (2S,4R,5S)—N-((5-chloro-2-(2-(trifluoromethyl)pyrimidin-5-yl)pyridin-4-yl)methyl)-4-fluoro-1-(5-fluoropyridin-2-ylsulfonyl)-5-methylpyrrolidine-2-carboxamide] | 
15 | 66.9 nM | C[C@H]1[C@H](F)C[C@@H](C(=O)NCc2cc(-c3cnc(C(F)(F)F)nc3)ccc2C#N)N1S(=O)(=O)c1ccc(F)cn1 [[10], (2S,4R,5S)—N-(2-cyano-5-(2-(trifluoromethyl)pyrimidin-5-yl)benzyl)-4-fluoro-1-(5-fluoropyridin-2-ylsulfonyl)-5-methylpyrrolidine-2-carboxamide] | 
16 | 6.73 nM | C[C@H]1[C@H](F)C[C@@H](C(=O)NCc2cc(-c3cnc(C(F)(F)F)nc3)ncc2OC(F)(F)F)N1S(=O)(=O)c1ccc(F)cn1 [[11], (2S,4R,5S)-4-fluoro-1-(5-fluoropyridin-2-ylsulfonyl)-5-methyl-N-((5-(trifluoromethoxy)-2-(2-(trifluoromethyl)pyrimidin-5-yl)pyridin-4-yl)methyl)pyrrolidine-2-carboxamide] | 
17 | 103 nM | C[C@H]1[C@H](F)C[C@@H](C(=O)NCc2cc(-c3cnc(C(F)(F)F)nc3)ncc2F)N1S(=O)(=O)c1ccc(F)cn1 [[12], (2S,4R,5S)-4-fluoro-N-((5-fluoro-2-(2-(trifluoromethyl)pyrimidin-5-yl)pyridin-4-yl)methyl)-1-(5-fluoropyridin-2-ylsulfonyl)-5-methylpyrrolidine-2-carboxamide] | 
18 | 89.8 nM | C[C@H]1[C@H](F)C[C@@H](C(=O)NCc2cc(-c3cnc(C(F)(F)F)nc3)ncc2C#N)N1S(=O)(=O)c1ccc(F)cn1 [[13], (2S,4R,5S)—N-((5-cyano-2-(2-(trifluoromethyl)pyrimidin-5-yl)pyridin-4-yl)methyl)-4-fluoro-1-(5-fluoropyridin-2-ylsulfonyl)-5-methylpyrrolidine-2-carboxamide] | 
19 | 75.1 nM | C[C@H]1[C@H](F)C[C@@H](C(=O)NCc2cc(-c3cnc(C(F)(F)F)nc3)cnc2C(F)F)N1S(=O)(=O)c1ccc(F)cn1 [[14], (2S,4R,5S)—N-((2-(difluoromethyl)-5-(2-(trifluoromethyl)pyrimidin-5-yl)pyridin-3-yl)methyl)-4-fluoro-1-(5-fluoropyridin-2-ylsulfonyl)-5-methylpyrrolidine-2-carboxamide] | 
20 | 47.7 nM | C[C@H]1[C@H](F)C[C@@H](C(=O)NCc2cc(-c3cnc(C(F)(F)F)nc3)cnc2C(F)(F)F)N1S(=O)(=O)c1ccc(F)cn1 [[15], (2S,4R,5S)-4-fluoro-1-(5-fluoropyridin-2-ylsulfonyl)-5-methyl-N-((2-(trifluoromethyl)-5-(2-(trifluoromethyl)pyrimidin-5-yl)pyridin-3-yl)methyl)pyrrolidine-2-carboxamide] | 
